Data from publication PMC3906526 (Archives of Pharmacal Research, 2013).
pIC50: −log10 of the molar value.

Target: c-Kit (Homo sapiens, UniProt P10721)
Assay: AlphaBead
Type: biochemical

c-Kit, sequence (P10721 544-976): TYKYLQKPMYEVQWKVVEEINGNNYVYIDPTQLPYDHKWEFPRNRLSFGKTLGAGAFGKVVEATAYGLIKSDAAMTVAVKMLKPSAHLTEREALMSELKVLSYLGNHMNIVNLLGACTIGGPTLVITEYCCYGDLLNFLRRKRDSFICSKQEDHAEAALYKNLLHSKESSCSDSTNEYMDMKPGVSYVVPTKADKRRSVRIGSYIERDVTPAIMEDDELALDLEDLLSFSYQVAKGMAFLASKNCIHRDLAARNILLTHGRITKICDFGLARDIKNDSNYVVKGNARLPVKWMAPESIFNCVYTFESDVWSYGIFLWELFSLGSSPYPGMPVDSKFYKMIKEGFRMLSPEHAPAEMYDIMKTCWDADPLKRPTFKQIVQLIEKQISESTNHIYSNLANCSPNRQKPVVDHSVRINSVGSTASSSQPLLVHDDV

Row | Compound | pIC50
1 | COc1ccc(-c2cc(=O)c3c(O)cc(O)cc3o2)cc1 [Y1, acacetin] | 4.88
2 | O=c1cc(-c2ccc(O)cc2)oc2cc(O)cc(O)c12 [Y3, apigenin] | 5.33
3 | O=c1cc(-c2ccc(O)c(O)c2)oc2cc(O)cc(O)c12 [Y4, luteolin] | 6.00
